In US20220389061A1, “IMMUNOMODULATORS” (priority 2019, published 2022) one finds IC50 data, which are given here for nine compounds.

Starred links: 1 amine or outer side, 2 acyl side, 3 side chain; linkers in the order of their positions; H or OH if unused. Positions of bridges follow the written chain, without caps; N, C: chain ends. Non-standard residues stand in square brackets, D forms with d. Residues, ends and D or L forms follow the SMILES beside them. Groups on a side chain read outwards from the residue. *: point of attachment. Trp(1-CH2COOH) = N[C@@H](Cc1cn(CC(=O)O)c2ccccc12)C(=O)O; X88 = Cc1cc([N+](=O)[O-])ccc1NC(=S)*; Hyp = O=C(O)[C@@H]1C[C@@H](O)CN1; X10 = S=C(Nc1ccc(N2CCOCC2)cc1)*; X27 = Cc1cc([N+](=O)[O-])ccc1N*; X11 = S=C(Nc1ccccc1-c1ccccc1)*; X43 = S=C(Nc1ccccc1Oc1ccccc1)*; pNA = O=[N+]([O-])c1ccc(N*)cc1; NMeNle = CCCC[C@H](NC)C(=O)O; X2 = c1ccc(-c2ccccc2N*)cc1; NMeA = CN[C@@H](C)C(=O)O; Dab = NCC[C@H](N)C(=O)O; Dap = NC[C@H](N)C(=O)O; CO = O=C([*:1])[*:2]

For one assay, the target named is T1, PD-1/PD-L1 (Homo sapiens, UniProt Q9NZQ7).
T1 construct: TVMV protease site linker (C); made in house; host or cells: HEK293T cells
T1 sequence (Q9NZQ7 18-239): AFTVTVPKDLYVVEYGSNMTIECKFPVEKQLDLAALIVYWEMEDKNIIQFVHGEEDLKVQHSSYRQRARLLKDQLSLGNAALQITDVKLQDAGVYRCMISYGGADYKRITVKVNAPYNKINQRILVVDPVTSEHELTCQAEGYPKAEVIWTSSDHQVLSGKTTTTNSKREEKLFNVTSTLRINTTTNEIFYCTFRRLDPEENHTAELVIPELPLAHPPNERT
In words: PD-1/PD-L1 Homogenous Time-Resolved Fluorescence (HTRF) binding assay.
Details: not given
Put shortly: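 HTRF read-out using europium cryptate anti-Ig (1 nM) and APC anti-His (20 nM) on extracellular-domain fusion proteins in dPBS/0.1% BSA/0.05% Tween-20. Inhibitor first incubated 15 min with 10 nM PD-L1-His, followed by 20 nM PD-1-Ig for another 15 min.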
(TR-FRET usually uses a lanthanide donor and a delayed reading to cut background.)
As usually defined, the IC50 is the concentration at which inhibition is half-maximal. Consider `CCCC[C@H]1C(=O)N(C)[C@@H](CCCC)C(=O)N[C@@H](CC(C)C)C(=O)N[C@H](C(=O)NCC(N)=O)CSCC(=O)N[C@@H](Cc2ccc(O)cc2)C(=O)N(C)[C@@H](C)C(=O)N[C@@H](CC(N)=O)C(=O)N2CCC[C@H]2C(=O)N[C@@H](CNC(=S)Nc2ccc([N+](=O)[O-])cc2C)C(=O)N[C@@H](CC(C)C)C(=O)N2C[C@H](O)C[C@H]2C(=O)N[C@@H](Cc2c[nH]c3ccccc23)C(=O)N[C@@H](CCNC(=S)Nc2ccc([N+](=O)[O-])cc2C)C(=O)N[C@@H](Cc2cn(CC(=O)O)c3ccccc23)C(=O)N1C` [Example 1125] ({CH2CO}-Y[NMeA]NP[Dap](X88)L[Hyp]W[Dab](X88)[Trp(1-CH2COOH)][NMeNle][NMeNle]LCG-NH2; thioether N-14), for which the IC50 was found to be 6.7 nM. Same read-out and setting: then `CCCC[C@H]1C(=O)N(C)[C@@H](CCCC)C(=O)N[C@@H](CC(C)C)C(=O)N[C@H](C(=O)NCC(N)=O)CSCC(=O)N[C@@H](Cc2ccc(O)cc2)C(=O)N(C)[C@@H](C)C(=O)N[C@@H](CC(N)=O)C(=O)N2CCC[C@H]2C(=O)N[C@@H](CNC(=O)Nc2ccc([N+](=O)[O-])cc2)C(=O)N[C@@H](CC(C)C)C(=O)N2C[C@H](O)C[C@H]2C(=O)N[C@@H](Cc2c[nH]c3ccccc23)C(=O)N[C@@H](CCNC(=O)Nc2ccc([N+](=O)[O-])cc2)C(=O)N[C@@H](Cc2cn(CC(=O)O)c3ccccc23)C(=O)N1C` [Example 1130] ({CH2CO}-Y[NMeA]NP[Dap]([CO-pNA])L[Hyp]W[Dab]([CO-pNA])[Trp(1-CH2COOH)][NMeNle][NMeNle]LCG-NH2; thioether N-14), with 2 nM; and `CCCC[C@H]1C(=O)N(C)[C@@H](CCCC)C(=O)N[C@@H](CC(C)C)C(=O)N[C@H](C(=O)NCC(N)=O)CSCC(=O)N[C@@H](Cc2ccc(O)cc2)C(=O)N(C)[C@@H](C)C(=O)N[C@@H](CC(N)=O)C(=O)N2CCC[C@H]2C(=O)N[C@@H](CN)C(=O)N[C@@H](CC(C)C)C(=O)N2C[C@H](O)C[C@H]2C(=O)N[C@@H](Cc2c[nH]c3ccccc23)C(=O)N[C@@H](CCNC(=O)Nc2ccc([N+](=O)[O-])cc2)C(=O)N[C@@H](Cc2cn(CC(=O)O)c3ccccc23)C(=O)N1C` [Example 1131] ({CH2CO}-Y[NMeA]NP[Dap]L[Hyp]W[Dab]([CO-pNA])[Trp(1-CH2COOH)][NMeNle][NMeNle]LCG-NH2; thioether N-14), with 7.3 nM. On the same count and under the same terms, then `CCCC[C@H]1C(=O)N(C)[C@@H](CCCC)C(=O)N[C@@H](CC(C)C)C(=O)N[C@H](C(=O)NCC(N)=O)CSCC(=O)N[C@@H](Cc2ccc(O)cc2)C(=O)N(C)[C@@H](C)C(=O)N[C@@H](CC(N)=O)C(=O)N2CCC[C@H]2C(=O)N[C@@H](CNC(=O)Nc2ccc([N+](=O)[O-])cc2)C(=O)N[C@@H](CC(C)C)C(=O)N2C[C@H](O)C[C@H]2C(=O)N[C@@H](Cc2c[nH]c3ccccc23)C(=O)N[C@@H](CCN)C(=O)N[C@@H](Cc2cn(CC(=O)O)c3ccccc23)C(=O)N1C` [Example 1132] ({CH2CO}-Y[NMeA]NP[Dap]([CO-pNA])L[Hyp]W[Dab][Trp(1-CH2COOH)][NMeNle][NMeNle]LCG-NH2; thioether N-14), with 3.7 nM.

The assay is the same for the next values; noted with them: PD-L1-His 10 nM pre-incubated with inhibitor, PD-1-Ig 20 nM; read-out: HTRF IC50.
Regarding `CCCC[C@H]1C(=O)N(C)[C@@H](CCCC)C(=O)N[C@@H](CC(C)C)C(=O)N[C@H](C(=O)NCC(N)=O)CSCC(=O)N[C@@H](Cc2ccc(O)cc2)C(=O)N(C)[C@@H](C)C(=O)N[C@@H](CC(N)=O)C(=O)N2CCC[C@H]2C(=O)N[C@@H](CNC(=S)Nc2ccc(N3CCOCC3)cc2)C(=O)N[C@@H](CC(C)C)C(=O)N2C[C@H](O)C[C@H]2C(=O)N[C@@H](Cc2c[nH]c3ccccc23)C(=O)N[C@@H](CCNC(=S)Nc2ccc(N3CCOCC3)cc2)C(=O)N[C@@H](Cc2cn(CC(=O)O)c3ccccc23)C(=O)N1C` [Example 1127] ({CH2CO}-Y[NMeA]NP[Dap](X10)L[Hyp]W[Dab](X10)[Trp(1-CH2COOH)][NMeNle][NMeNle]LCG-NH2; thioether N-14), the IC50 turned out to be 3 nM. For `CCCC[C@H]1C(=O)N(C)[C@@H](CCCC)C(=O)N[C@@H](CC(C)C)C(=O)N[C@H](C(=O)NCC(N)=O)CSCC(=O)N[C@@H](Cc2ccc(O)cc2)C(=O)N(C)[C@@H](C)C(=O)N[C@@H](CC(N)=O)C(=O)N2CCC[C@H]2C(=O)N[C@@H](CNC(=S)Nc2ccccc2-c2ccccc2)C(=O)N[C@@H](CC(C)C)C(=O)N2C[C@H](O)C[C@H]2C(=O)N[C@@H](Cc2c[nH]c3ccccc23)C(=O)N[C@@H](CCNC(=S)Nc2ccccc2-c2ccccc2)C(=O)N[C@@H](Cc2cn(CC(=O)O)c3ccccc23)C(=O)N1C` [Example 1128] ({CH2CO}-Y[NMeA]NP[Dap](X11)L[Hyp]W[Dab](X11)[Trp(1-CH2COOH)][NMeNle][NMeNle]LCG-NH2; thioether N-14), the IC50 worked out at 0.6 nM. On to `CCCC[C@H]1C(=O)N(C)[C@@H](CCCC)C(=O)N[C@@H](CC(C)C)C(=O)N[C@H](C(=O)NCC(N)=O)CSCC(=O)N[C@@H](Cc2ccc(O)cc2)C(=O)N(C)[C@@H](C)C(=O)N[C@@H](CC(N)=O)C(=O)N2CCC[C@H]2C(=O)N[C@@H](CNC(=S)Nc2ccccc2Oc2ccccc2)C(=O)N[C@@H](CC(C)C)C(=O)N2C[C@H](O)C[C@H]2C(=O)N[C@@H](Cc2c[nH]c3ccccc23)C(=O)N[C@@H](CCNC(=S)Nc2ccccc2Oc2ccccc2)C(=O)N[C@@H](Cc2cn(CC(=O)O)c3ccccc23)C(=O)N1C` [Example 1129] ({CH2CO}-Y[NMeA]NP[Dap](X43)L[Hyp]W[Dab](X43)[Trp(1-CH2COOH)][NMeNle][NMeNle]LCG-NH2; thioether N-14), for which the IC50 was determined as 9.4 nM.

For the compound `CCCC[C@H]1C(=O)N(C)[C@@H](CCCC)C(=O)N[C@@H](CC(C)C)C(=O)N[C@H](C(=O)NCC(N)=O)CSCC(=O)N[C@@H](Cc2ccc(O)cc2)C(=O)N(C)[C@@H](C)C(=O)N[C@@H](CC(N)=O)C(=O)N2CCC[C@H]2C(=O)N[C@@H](CNC(=O)Nc2ccc([N+](=O)[O-])cc2C)C(=O)N[C@@H](CC(C)C)C(=O)N2C[C@H](O)C[C@H]2C(=O)N[C@@H](Cc2c[nH]c3ccccc23)C(=O)N[C@@H](CCN)C(=O)N[C@@H](Cc2cn(CC(=O)O)c3ccccc23)C(=O)N1C` [Example 1133] ({CH2CO}-Y[NMeA]NP[Dap]([CO-X27])L[Hyp]W[Dab][Trp(1-CH2COOH)][NMeNle][NMeNle]LCG-NH2; thioether N-14), the IC50 stood at 8.4 nM.

Staying with this assay, now noted: read-out: HTRF IC50; PD-L1-His 10 nM pre-incubated with inhibitor, PD-1-Ig 20 nM.
Consider `CCCC[C@H]1C(=O)N(C)[C@@H](CCCC)C(=O)N[C@@H](CC(C)C)C(=O)N[C@H](C(=O)NCC(N)=O)CSCC(=O)N[C@@H](Cc2ccc(O)cc2)C(=O)N(C)[C@@H](C)C(=O)N[C@@H](CC(N)=O)C(=O)N2CCC[C@H]2C(=O)N[C@@H](CNC(=O)Nc2ccccc2-c2ccccc2)C(=O)N[C@@H](CC(C)C)C(=O)N2C[C@H](O)C[C@H]2C(=O)N[C@@H](Cc2c[nH]c3ccccc23)C(=O)N[C@@H](CCNC(=O)Nc2ccccc2-c2ccccc2)C(=O)N[C@@H](Cc2cn(CC(=O)O)c3ccccc23)C(=O)N1C` [Example 1126] ({CH2CO}-Y[NMeA]NP[Dap]([CO-X2])L[Hyp]W[Dab]([CO-X2])[Trp(1-CH2COOH)][NMeNle][NMeNle]LCG-NH2; thioether N-14), for which the concentration for half-maximal inhibition (IC50) was determined as 1 nM.
